The text below walks through data of US20160046579A1, “THERAPEUTIC COMPOUNDS AND COMPOSITIONS” (AGIOS PHARMACEUTICALS, INC., priority 2013, published 2016).

In assay [1] the target is T1, wt PKR (Homo sapiens, UniProt P30613). The experiment in a line: PKR Mutant Assay, dose response (AC50), wild type PKR enzyme. It counts as biochemical. The method, then:
(§1) • PKR or PKR mutant enzyme solution was diluted in assay buffer. • 2 μL of test compound was added into wells first, and then 180 μL reaction mix was added. • Reactions mixture with test compound was assembled except for ADP, and plates were stored for 60 minutes at room temperature. • 20 uL ADP was added to start reaction at room temperature and reaction progress was measured as changes in absorbance at 340 nm wavelength at room temperature.
(§2) Test Compound Preparation: • Test compound stock was made at 100× concentration in 100% DMSO (10 mM) • 1 to 3 dilutions were made for 11 points (i.e. 50 μl of first concentration added to 100 μl 100% DMSO to yield 3.33 mM, 50 μl of this added to 100 μl DMSO to yield 1.11 mM, and so forth) • 1 to 100 dilution into assay (2 μl in 200 μl) yielded starting concentration of 100 μM, decreasing 3 fold for 11 points.

The target in another assay is PKR R532W (Homo sapiens, UniProt P30613, R532W). Briefly: PKR Mutant Assay, dose response (AC50), PKR R532W. It counts as biochemical. Particulars: PKR R532W mutant enzyme. The method, then: as §1, §2
The target in assay [2] is T1, wt PKR. Briefly: wt PKR cell based assay.
The target of a further assay is PKR R510Q (Homo sapiens, UniProt P30613, R510Q). The experiment in a line: PKR Mutant Assay, dose response (AC50), PKR R510Q. It counts as biochemical. The conditions noted are these: PKR R510Q mutant enzyme. The method, then: as §1, §2

Bounds are passed on as bounds.

PKR R532W, sequence (P30613 whole entry R532W): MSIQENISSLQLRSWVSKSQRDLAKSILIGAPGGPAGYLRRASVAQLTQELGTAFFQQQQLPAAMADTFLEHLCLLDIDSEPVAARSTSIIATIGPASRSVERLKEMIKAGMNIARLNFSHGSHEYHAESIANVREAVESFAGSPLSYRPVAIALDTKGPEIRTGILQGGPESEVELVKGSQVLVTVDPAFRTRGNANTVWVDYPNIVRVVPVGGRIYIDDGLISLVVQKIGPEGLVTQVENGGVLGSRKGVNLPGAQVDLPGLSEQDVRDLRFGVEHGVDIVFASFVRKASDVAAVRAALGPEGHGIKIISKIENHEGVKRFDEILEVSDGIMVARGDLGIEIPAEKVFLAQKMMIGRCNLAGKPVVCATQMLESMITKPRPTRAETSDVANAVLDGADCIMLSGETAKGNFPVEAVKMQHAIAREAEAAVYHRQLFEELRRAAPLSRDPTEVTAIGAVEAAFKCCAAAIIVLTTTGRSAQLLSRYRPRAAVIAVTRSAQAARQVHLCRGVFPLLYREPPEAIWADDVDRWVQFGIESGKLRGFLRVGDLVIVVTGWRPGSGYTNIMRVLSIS
PKR R510Q, sequence (P30613 whole entry R510Q): as the sequence (P30613 whole entry R532W) above, with R510Q, W532R counted along it
T1 sequence (P30613 whole entry): as the sequence (P30613 whole entry R532W) above, with W532R counted along it

As for `O=C(c1ccc(NS(=O)(=O)c2cccc3scnc23)cc1)N1CCC(O)(C2CCC(O)CC2)CC1` (centres unmarked) [Compound 501, N-(4-(4-hydroxy-4-(4-hydroxycyclohexyl)piperidine-1-carbonyl)phenyl)benzo[d]thiazole-4-sulfonamide], the AC50 on wt PKR [1] (wild type PKR enzyme), on PKR R532W, on wt PKR [2] and at PKR R510Q was 0.101 to 1 µM in each case.
At PKR R510Q, `CC(C)CC1(O)CCN(C(=O)c2ccc(NS(=O)(=O)c3cnc(O)c4cccnc34)cc2)CC1` [Compound 416] gave a half-maximal activity concentration (AC50) of more than 10 µM.
Consider `Cc1cc(C2(O)CCN(C(=O)c3ccc(NS(=O)(=O)c4cccc5scnc45)cc3)CC2)sn1` [Compound 528, N-(4-(4-hydroxy-4-(3-methylisothiazol-5-yl)piperidine-1-carbonyl)phenyl)benzo[d]thiazole-4-sulfonamide], for which the half-maximal activity concentration (AC50) is less than 0.1 µM at wt PKR [1] (wild type PKR, enzymatic assay) and 0.101 to 1 µM at wt PKR [2] (wild type PKR).
For the compound `CC(C)CC1(N)CCN(C(=O)c2ccc(NS(=O)(=O)c3cccc4scnc34)cc2)CC1` [Compound 529], the AC50 on PKR R532W and on PKR R510Q was 0.101 to 1 µM each time.
Turning to `CC1(O)CCC(C2(O)CCN(C(=O)c3ccc(NS(=O)(=O)c4cccc5scnc45)cc3)CC2)CC1` (centres unmarked) [Compound 504], the values for the AC50 at wt PKR [1] (wild type PKR enzyme), on PKR R532W and at PKR R510Q were 0.101 to 1 µM, 1.01 to 10 µM and 1.01 to 10 µM, respectively.
`Cn1nccc1CC1(O)CCN(C(=O)c2ccc(NS(=O)(=O)c3cccc4nccnc34)cc2)CC1` [Compound 508, N-(4-(4-hydroxy-4-((1-methyl-1H-pyrazol-5-yl)methyl)piperidine-1-carbonyl)phenyl)quinoxaline-5-sulfonamide]: the AC50 on wt PKR [1] (wild type PKR enzyme) is less than 0.1 µM; on PKR R532W it was less than 0.1 µM; on wt PKR [2], less than 0.1 µM; at PKR R510Q, 0.101 to 1 µM.
`CN1CCC(CC2(O)CCN(C(=O)c3ccc(NS(=O)(=O)c4cccc5scnc45)cc3)CC2)C1=O` (centres unmarked) [Compound 488]: the AC50 on wt PKR [1] (wild type PKR enzyme) is 1.01 to 10 µM; on PKR R532W, 0.101 to 1 µM; at PKR R510Q, more than 10 µM.
Regarding `O=C1NCCC1CC1(O)CCN(C(=O)c2ccc(NS(=O)(=O)c3cccc4nccnc34)cc2)CC1` (centres unmarked) [Compound 496], the AC50 on wt PKR [1] (wild type PKR enzyme) was 1.01 to 10 µM; on PKR R532W, 1.01 to 10 µM; at PKR R510Q it was more than 10 µM.
On to `CC(C)CC1(OP(=O)(O)O)CCN(C(=O)c2ccc(NS(=O)(=O)c3cccc4scnc34)cc2)CC1` [Compound 524], for which the concentration at half-maximal activity (AC50) is more than 10 µM at wt PKR [1] (wild type PKR enzyme), more than 10 µM at PKR R532W and 1.01 to 10 µM at wt PKR [2].
For `O=C(c1ccc(NS(=O)(=O)c2cccc3scnc23)cc1)N1CCC(O)(c2nc(Cl)cs2)CC1` [Compound 481], the AC50 on wt PKR [1] (wild type PKR enzyme) is 1.01 to 10 µM; on PKR R532W, 0.101 to 1 µM; at PKR R510Q, 1.01 to 10 µM.
Regarding `O=C(c1ccc(NS(=O)(=O)c2cccc3scnc23)cc1)N1CCC(O)(Cc2nc(Cl)cs2)CC1` [Compound 489, N-(4-(4-((4-chlorothiazol-2-yl)methyl)-4-hydroxypiperidine-1-carbonyl)phenyl)benzo[d]thiazole-4-sulfonamide], the AC50 at wt PKR [1] (wild type PKR enzyme) was less than 0.1 µM; at wt PKR [2] it was 0.101 to 1 µM.
Regarding `O=C(c1ccc(NS(=O)(=O)c2cccc3nccnc23)cc1)N1CCC(O)(c2ccns2)CC1` [Compound 517], the AC50 at wt PKR [2] and at PKR R510Q was 0.101 to 1 µM each time.
`O=C(c1ccc(NS(=O)(=O)c2cccc3nccnc23)cc1)N1CCC(O)(c2sncc2Cl)CC1` [Compound 516, N-(4-(4-(4-chloroisothiazol-5-yl)-4-hydroxypiperidine-1-carbonyl)phenyl)quinoxaline-5-sulfonamide]: the concentration at half-maximal activity (AC50) at wt PKR [2] is less than 0.1 µM; at PKR R510Q, 0.101 to 1 µM.
`CCn1cc(CC2(O)CCN(C(=O)c3ccc(NS(=O)(=O)c4cccc5scnc45)cc3)CC2)cn1` [Compound 506]: the AC50 on wt PKR [1] (wild type PKR enzyme) was 1.01 to 10 µM; on PKR R532W, 1.01 to 10 µM; at PKR R510Q, more than 10 µM.
As for `Nc1nc(CC2(O)CCN(C(=O)c3ccc(NS(=O)(=O)c4cccc5scnc45)cc3)CC2)cs1` [Compound 485], the figures for the AC50 on wt PKR [1] (wild type PKR enzyme), at PKR R532W and at PKR R510Q were 1.01 to 10 µM, 1.01 to 10 µM and more than 10 µM, respectively.
Consider `CC(C)(O)CCCC1(O)CCN(C(=O)c2ccc(NS(=O)(=O)c3cccc4scnc34)cc2)CC1` [Compound 476], for which the AC50 on wt PKR [1] (wild type PKR enzyme) and at PKR R532W was 1.01 to 10 µM each time.
On to `O=C(c1ccc(NS(=O)(=O)c2cccc3scnc23)cc1)N1CCC(O)(c2ncc(Cl)s2)CC1` [Compound 509], for which the AC50 at wt PKR [1] (wild type PKR enzyme) was 1.01 to 10 µM; on PKR R532W, 0.101 to 1 µM; at PKR R510Q it was more than 10 µM.
In the case of `CCn1cc(CC2(O)CCN(C(=O)c3ccc(NS(=O)(=O)c4cccc5nccnc45)cc3)CC2)cn1` [Compound 503], the half-maximal activity concentration (AC50) on wt PKR [1] (wild type PKR enzyme) is 0.101 to 1 µM; on PKR R532W, 0.101 to 1 µM; on PKR R510Q, more than 10 µM.
Consider `Cn1ccc(C2(O)CCN(C(=O)c3ccc(NS(=O)(=O)c4cccc5scnc45)cc3)CC2)n1` [Compound 450], for which the concentration at half-maximal activity (AC50) on wt PKR [1] (wild type PKR enzyme), on PKR R532W and on PKR R510Q was more than 10 µM each time.
With `CC(C)CC1(O)CCN(C(=O)c2ccc(NS(=O)(=O)c3cccc4cncnc34)cc2)CC1` [Compound 441], the concentration at half-maximal activity (AC50) on wt PKR [1] (wild type PKR enzyme) fell in the range of 0.101 to 1 µM.
In the case of `CC1(O)CCC(C2(O)CCN(C(=O)c3ccc(NS(=O)(=O)c4cccc5nccnc45)cc3)CC2)CC1` (centres unmarked) [Compound 505], the half-maximal activity concentration (AC50) at wt PKR [1] (wild type PKR enzyme), on PKR R532W and on PKR R510Q was 0.101 to 1 µM each time.
For the compound `CCS(=O)(=O)CC1(O)CCN(C(=O)c2ccc(NS(=O)(=O)c3cccc4scnc34)cc2)CC1` [Compound 484], the AC50 is 1.01 to 10 µM on wt PKR [1] (wild type PKR enzyme), 1.01 to 10 µM on PKR R532W and more than 10 µM at PKR R510Q.
Regarding `CN1CCC(C2(CO)CCN(C(=O)c3ccc(NS(=O)(=O)c4cccc5scnc45)cc3)CC2)C1=O` (centres unmarked) [Compound 487], the half-maximal activity concentration (AC50) at wt PKR [1] (wild type PKR enzyme), at PKR R532W and on PKR R510Q was 1.01 to 10 µM throughout.
As to `Cn1ccc(CC2(O)CCN(C(=O)c3ccc(NS(=O)(=O)c4cccc5nccnc45)cc3)CC2)n1` [Compound 507], the AC50 is 0.101 to 1 µM on wt PKR [1] (wild type PKR enzyme), 0.101 to 1 µM on PKR R532W and more than 10 µM at PKR R510Q.
For the compound `CCS(=O)(=O)CC1(O)CCN(C(=O)c2ccc(NS(=O)(=O)c3cccc4nccnc34)cc2)CC1` [Compound 490], the results for the AC50 at wt PKR [1] (wild type PKR enzyme), on PKR R532W and on PKR R510Q were 1.01 to 10 µM, 1.01 to 10 µM and more than 10 µM, respectively.
With `CS(=O)(=O)CCC1(O)CCN(C(=O)c2ccc(NS(=O)(=O)c3cccc4scnc34)cc2)CC1` [Compound 466], the values for the half-maximal activity concentration (AC50) on wt PKR [1] (wild type PKR enzyme), on PKR R532W and on PKR R510Q were 1.01 to 10 µM, more than 10 µM and more than 10 µM, respectively.
The compound `O=C(c1ccc(NS(=O)(=O)c2cccc3nccnc23)cc1)N1CCC(O)(Cc2nc(Cl)cs2)CC1` [Compound 494] returned a half-maximal activity concentration (AC50) at PKR R510Q of 0.101 to 1 µM.
As to `CS(=O)(=O)CC1(O)CCN(C(=O)c2ccc(NS(=O)(=O)c3cccc4scnc34)cc2)CC1` [Compound 472], the values for the AC50 at wt PKR [1] (wild type PKR enzyme), at PKR R532W and on PKR R510Q were 0.101 to 1 µM, 0.101 to 1 µM and 1.01 to 10 µM, respectively.
For `CC(C)CC1(O)CCN(C(=O)c2ccc(NS(=O)(=O)c3cccc4ncc(O)nc34)cc2)CC1` [Compound 460], the concentration at half-maximal activity (AC50) at wt PKR [1] (wild type PKR enzyme), on PKR R532W and on PKR R510Q was more than 10 µM in each case.
On to `CS(=O)(=O)CC1(O)CCN(C(=O)c2ccc(NS(=O)(=O)c3cccc4nccnc34)cc2)CC1` [Compound 474], for which the AC50 on wt PKR [1] (wild type PKR enzyme) lay within 0.101 to 1 µM; on PKR R532W, 0.101 to 1 µM; on PKR R510Q, 1.01 to 10 µM.
As for `CC(C)CC1(O)CCN(C(=O)c2ccc(NS(=O)(=O)c3cccc4[nH]cnc34)cc2)CC1` [Compound 449], the AC50 on wt PKR [1] (wild type PKR enzyme), on PKR R532W and on PKR R510Q was more than 10 µM each time.
For the compound `CC(C)CC1(OP(=O)(O)O)CCN(C(=O)c2ccc(NS(=O)(=O)c3cccc4nccnc34)cc2)CC1` [Compound 525], the AC50 on wt PKR [2] was 0.101 to 1 µM; on PKR R510Q, more than 10 µM.
Turning to `O=C(c1ccc(NS(=O)(=O)c2cccc3scnc23)cc1)N1CCC(O)(c2ccns2)CC1` [Compound 515, N-(4-(4-hydroxy-4-(isothiazol-5-yl)piperidine-1-carbonyl)phenyl)benzo[d]thiazole-4-sulfonamide], the AC50 at wt PKR [2] and at PKR R510Q was 0.101 to 1 µM each time.
Turning to `O=C1NCCC1CC1(O)CCN(C(=O)c2ccc(NS(=O)(=O)c3cccc4scnc34)cc2)CC1` (centres unmarked) [Compound 495], the half-maximal activity concentration (AC50) at wt PKR [1] (wild type PKR enzyme) is 1.01 to 10 µM; at PKR R532W, 1.01 to 10 µM; at PKR R510Q it was more than 10 µM.
On to `CC(C)(O)CCCC1(O)CCN(C(=O)c2ccc(NS(=O)(=O)c3cccc4nccnc34)cc2)CC1` [Compound 475], for which the AC50 on wt PKR [1] (wild type PKR enzyme) and on PKR R532W was more than 10 µM in each case.
Turning to `CS(=O)(=O)CCC1(O)CCN(C(=O)c2ccc(NS(=O)(=O)c3cccc4nccnc34)cc2)CC1` [Compound 470], the values for the AC50 at wt PKR [1] (wild type PKR enzyme), on PKR R532W and at PKR R510Q were 1.01 to 10 µM, 1.01 to 10 µM and more than 10 µM, respectively.
In the case of `CC(F)(F)CCC1(O)CCN(C(=O)c2ccc(NS(=O)(=O)c3cccc4scnc34)cc2C#N)CC1` [Compound 477, N-(3-cyano-4-(4-(3,3-difluorobutyl)-4-hydroxypiperidine-1-carbonyl)phenyl)benzo[d]thiazole-4-sulfonamide], the values for the concentration at half-maximal activity (AC50) at wt PKR [1] (wild type PKR enzyme), at PKR R532W and at PKR R510Q were 0.101 to 1 µM, 0.101 to 1 µM and 1.01 to 10 µM, respectively.

For orientation: AC50 means the concentration giving half of the maximal activity seen.
